Source: patent US7973050B2, “Enantiomeric compounds with antibacterial activity” (Crestone, Inc., priority 2006, dated 2011)
In brackets after ≈: the same amount, converted by molar mass. Structures can show the parent of a compound that is named as a salt. Where two headings read alike, the source gives them in different places.

How the values were obtained:
[1] = system: C. difficile clinical isolates (spore production); assay: C. difficile sporulation on agar with subMIC drug; assay type: cell-based, Clostridium difficile; details: 96 hours
[2] = target: Clostridium difficile MetRS (Clostridioides difficile, UniProt Q181D9, C642S); assay: C. difficile MetRS inhibition (tRNA charging SPA assay); assay type: biochemical
Description: Compounds of the present invention were assayed to determine their ability to inhibit MetRS. Assays were performed as follows:
Each reaction was started by adding 20 μl appropriately diluted pure enzyme (pre-incubated with inhibitor) to 25 μl reaction mix for 10 min at room temperature. The reaction is terminated by the addition of 150 μl 167 mM sodium citrate, pH 2.15 containing phosphodiesterase (PDE) SPA beads (0.833 mg/ml). The binding of the radiolabelled product to the bead brings the isotope into close enough proximity to allow radiation from the tritium to excite the scintillant within the bead. Any unbound radiolabel is not close enough to the scintillant to allow this energy transfer, so no signal is generated. Following termination of the reaction, plates are spun at 2500 rpm for 5 min in a Mistral 3000E plate centrifuge (or alternatively allowed to stand for 1 hour). The assay is conducted in 96-well Optiplates (Packard). Plates are counted on a TopCount. (Packard 96 well counter).
Mixed E. coli MRE 600 tRNA and ATP were purchased from Boehringer-Mannheim, L-[methyl-^3H]methionine and phosphodiesterase scintillation proximity (SPA) beads from Amersham Pharmacia Biotech and other reagents from Sigma.

[3] = system: C. difficile; assay: C. difficile-infected hamster survival study; assay type: in vivo
Description: Animal studies were performed to determine the efficacy of MetRS inhibitors for treating C. difficile-infections. The MetRS inhibitors tested were 5-[3-((R)-6,8-Dibromo-chroman-4-ylamino)-propylamino]-4H-thieno[3,2-b]pyridine-7-one (both racemic mixture and the R enantiomer) and 5-[3-((R)-8-Bromo-6-chloro-chroman-4-ylamino)-propylamino]-4H-thieno[3,2-b]pyridin-7-one. Also tested was 2-(3-{3,5-Dibromo-2-[2-(4-methyl-thiazol-5-yl)-ethoxy]-benzylamino}-propylamino)-1H-quinolin-4-one.
Results were compared to C. difficile-infected hamsters treated with the conventional antibiotic, vancomycin. Infected hamsters were treated with either a solution or suspension of a MetRS inhibitor at 5 to 50 mg/kg or vancomycin at 2.5, 5 or 25 mg/kg. There were eight hamsters per group with the final endpoint of the experiment being survival. Expired hamsters were examined for GI condition.

[4] = system: C. difficile; assay: MIC90 against C. difficile clinical isolates, agar dilution (CLSI); assay type: cell-based; details: Clostridioides difficile, read-out: MIC90 against Clostridium difficile
[5] = system: rat MetRS; assay: Mammalian MetRS inhibition (selectivity); assay type: biochemical; details: mammalian enzyme
[6] = agar dilution, clinical isolates, 24 hours at 35° C. anaerobic, range stated for the group
[7] = range stated for the group of listed examples, read-out: Ki, inhibition of Clostridium difficile MetRS

Chain of Clostridium difficile MetRS (Q181D9 2-645 C642S): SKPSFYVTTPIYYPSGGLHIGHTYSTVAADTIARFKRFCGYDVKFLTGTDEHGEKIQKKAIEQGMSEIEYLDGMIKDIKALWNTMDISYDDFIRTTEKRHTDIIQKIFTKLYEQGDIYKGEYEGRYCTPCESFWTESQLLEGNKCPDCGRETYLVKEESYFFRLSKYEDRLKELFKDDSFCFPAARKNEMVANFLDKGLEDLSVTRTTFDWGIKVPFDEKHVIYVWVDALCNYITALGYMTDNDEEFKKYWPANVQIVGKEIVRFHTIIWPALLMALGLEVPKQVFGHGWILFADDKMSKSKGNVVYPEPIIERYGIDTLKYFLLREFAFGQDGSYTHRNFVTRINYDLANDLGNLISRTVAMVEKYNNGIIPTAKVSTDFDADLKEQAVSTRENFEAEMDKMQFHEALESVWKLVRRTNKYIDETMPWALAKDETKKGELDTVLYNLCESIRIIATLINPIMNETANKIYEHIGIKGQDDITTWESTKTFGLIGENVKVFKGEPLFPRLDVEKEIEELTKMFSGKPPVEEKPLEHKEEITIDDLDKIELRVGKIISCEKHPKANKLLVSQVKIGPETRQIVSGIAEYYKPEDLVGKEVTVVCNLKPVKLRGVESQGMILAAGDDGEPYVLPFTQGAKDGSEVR

For `O=c1cc(NCCCN[C@@H]2CCOc3c(Br)cc(Br)cc32)[nH]c2ccsc12` (single isomer, unassigned) [Example 2, di-hydrochloride], the “spores (ratio of spores to total cells) at 0.25×MIC” value ([1]; all strains, 0.25×MIC) was < 2%, the “spores (ratio of spores to total cells) at 0.5×MIC” value ([1]; all strains, 0.5×MIC) was < 1% and the “effect on spore production, in words” value ([1]; subMIC concentrations) was “effective in preventing vegetative cells of C. difficile from forming spores”. For the same compound, the Ki [2] was 15 to 25 pM, the “efficacy (survival) in infected hamsters, in words” value ([3]; MetRS inhibitor at 5 to 50 mg/kg, solution or suspension) was “best efficacy” and the MIC90 [4, 6] was 0.25 to 4 µg/mL. The “inhibition of mammalian (rat) MetRS” value [5] was “no inhibition”.

Compound `O=c1cc(NCCCN[C@H]2CCOc3c(Br)cc(Br)cc32)[nH]c2ccsc12` (single isomer, unassigned) [Example 3, di-hydrochloride] has a Ki [2] of 24000 to 80000 pM.

`O=c1cc(NCCCN[C@@H]2CCOc3c(Br)cc(Cl)cc32)[nH]c2ccsc12` (single isomer, unassigned) [Example 4, di-hydrochloride] was tested, and the Ki [2] was 15 to 25 pM, the MIC90 ([4]; 24 h) was 0.25 to 4 µg/mL and the “inhibition of mammalian (rat) MetRS” value [5] was “no inhibition”.

For `O=c1cc(NCCCN[C@H]2CCOc3c(Br)cc(Cl)cc32)[nH]c2ccsc12` (single isomer, unassigned) [Example 5, di-hydrochloride], the Ki [2] was 24000 to 80000 pM.

For `O=c1cc(NCCCN[C@@H]2CCOc3c(Br)cc(Br)cc32)[nH]c2ccccc12` (single isomer, unassigned) [Example 6, di-hydrochloride], the Ki [2] was 15 to 25 pM, the MIC90 ([4]; 24 h) was 0.25 to 4 µg/mL and the “inhibition of mammalian (rat) MetRS” value [5] was “no inhibition”.

With `O=c1cc(NCCCN[C@H]2CCOc3c(Br)cc(Br)cc32)[nH]c2ccccc12` (single isomer, unassigned) [Example 7, di-hydrochloride] the Ki [2] was 24000 to 80000 pM.

For `O=c1cc(NCCCN[C@@H]2CCNc3c(Br)cc(Br)cc32)[nH]c2ccsc12` (single isomer, unassigned) [Example 8, tri-hydrochloride], the Ki [2] was 15 to 25 pM, the MIC90 ([4]; 24 h) was 0.25 to 4 µg/mL and the “inhibition of mammalian (rat) MetRS” value [5] was “no inhibition”.

Compound `O=c1cc(NCCCN[C@H]2CCNc3c(Br)cc(Br)cc32)[nH]c2ccsc12` (single isomer, unassigned) [Example 9, tri-hydrochloride] has a Ki [2] of 24000 to 80000 pM.

In the case of `O=c1cc(NCCCN[C@@H]2CCCc3c(Br)cc(Br)cc32)[nH]c2ccsc12` [Example 10, 5-[3-((R)-5,7-Dibromo-1,2,3,4-tetrahydro-naphthalen-1-ylamino)-propylamino]-4H-thieno[3,2-b]pyridine-7-one], the Ki [2, 7] is reported as 15 to 25 pM, the MIC90 [4, 6] is reported as 0.25 to 4 µg/mL (≈ 0.489 to 7.82 µM) and the “inhibition of mammalian (rat) MetRS” value [5] is reported as “no inhibition”.

In the case of `O=c1cc(NCCCN[C@@H]2COc3c(Br)cc(Br)cc32)[nH]c2ccsc12` [Example 11, 5-[3-((S)-5,7-Dibromo-2,3-dihydro-benzofuran-3-ylamino)-propylamino]-4H-thieno[3,2-b]pyridine-7-one], the Ki [2, 7] is reported as 15 to 25 pM, the MIC90 [4, 6] is reported as 0.25 to 4 µg/mL (≈ 0.501 to 8.01 µM) and the “inhibition of mammalian (rat) MetRS” value [5] is reported as “no inhibition”.

Compound `O=c1cc(NCCCN[C@H]2COc3c(Br)cc(Br)cc32)[nH]c2ccsc12` [Example 12, 5-[3-((R)-5,7-Dibromo-2,3-dihydro-benzofuran-3-ylamino)-propylamino]-4H-thieno[3,2-b]pyridine-7-one] has a Ki [2, 7] of 24000 to 80000 pM.

With `Cc1ncc([N+](=O)[O-])n1CCO` [metronidazole, reference compound] the “spores after exposure to subMIC concentrations” value ([1]; all tested strains, subMIC) was “up to 100%”.

In the case of `CN[C@H](CC(C)C)C(=O)N[C@H]1C(=O)N[C@@H](CC(N)=O)C(=O)N[C@H]2C(=O)N[C@H]3C(=O)N[C@H](C(=O)N[C@H](C(=O)O)c4cc(O)cc(O)c4-c4cc3ccc4O)[C@H](O)c3ccc(c(Cl)c3)Oc3cc2cc(c3O[C@@H]2O[C@H](CO)[C@@H](O)[C@H](O)[C@H]2O[C@H]2C[C@](C)(N)[C@H](O)[C@H](C)O2)Oc2ccc(cc2Cl)[C@H]1O` [vancomycin, reference compound], the “survival on Day 28 (vancomycin comparator)” value ([3]; C. difficile-infected hamsters, vancomycin at 2.5, 5 or 25 mg/kg) is reported as 0-10%.
